Measurements from PMC4095797 (Proteins, 2013).

Legend:
Assay type in all cases: binding
RPD1520 [1] = target: T1, RPD1520 (Rhodopseudomonas pseudopalustris, UniProt A0A1H8UI63); experiment: fluorescence thermal shift; settings: 10 μM protein, 1000 μM ligand; HEPES pH 7.5
BLR7848 = BLR7848 (Bradyrhizobium diazoefficiens, UniProt Q89CE9); experiment: fluorescence thermal shift; settings: 10 μM protein, 1000 μM ligand; HEPES pH 7.5
RPA1789 = RPA1789 (Rhodopseudomonas palustris, UniProt Q6N8W4); experiment: X-ray crystal structure; settings: co-crystallisation; SeMet protein; 1.60 Å
RPD1889 = RPD1889 (Rhodopseudomonas palustris, UniProt Q139W5); experiment: fluorescence thermal shift; settings: 10 μM protein, 1000 μM ligand; HEPES pH 7.5; pre-bound ligand present
RPB3575 = RPB3575 (Rhodopseudomonas palustris, UniProt Q2IU40); experiment: X-ray crystal structure; settings: co-crystallisation; SeMet protein; 1.70 Å
RPD1520 [2] = target: T1, RPD1520; experiment: intrinsic tryptophan fluorescence quenching; settings: excitation 275 nm; single-site fit; unit of KD printed as M^-1 (M meant)

Compound | dTm (RPD1520 [1]) | dTm (BLR7848) | dTm (RPD1889) | also measured
O=C(O)Cc1ccccc1 [PAA, phenylacetic acid] | large Tm shifts when phenylacetic acid or hydrocinnamic acid were included | – | – | –
O=C(O)/C=C/c1ccc(O)cc1 [COU, p-coumaric acid] | – | (p- coumaric acid, caffeic acid) produce the maximal observed thermal shifts | (p- coumaric acid, caffeic acid) produce the maximal observed thermal shifts | X-ray crystal structure (RPA1789): Structures for RPA1789 and RPB3575 proteins in complex with p-coumaric acid (COU, 4-hydroxycinammic acid); X-ray crystal structure (RPB3575): The structure of RPB3575 with p-coumaric acid (COU)
O=C(O)CCc1ccccc1 [hydrocinnamic acid] | large Tm shifts when phenylacetic acid or hydrocinnamic acid were included | – | – | –
O=C(O)C(=O)c1ccccc1 [BZF, benzoylformic acid] | – | – | – | KD (RPD1520 [2]): 1.50 × 10^-4 ± 0.11 M^-1
O=C(O)/C=C/c1ccc(O)c(O)c1 [CAF, caffeic acid] | – | (p- coumaric acid, caffeic acid) produce the maximal observed thermal shifts | (p- coumaric acid, caffeic acid) produce the maximal observed thermal shifts | –
